Reference: ChEMBL document CHEMBL5584269 (Bioorg Med Chem Lett, 2024)
pEC50: −log10 of the molar value. The source made the active and inactive calls. No cut-off for these calls is given here.

Experiments:
[1] = system: HeLa; assay: Cytotoxicity against human HeLa cells incubated for 72 hrs by alamar blue cell viability assay; format: functional, cell-based
[2] = system: Trypanosoma brucei; assay: Antitrypanosomal activity against bloodstream trypomastigote form of Trypanosoma brucei Lister 427 assessed as reduction in parasite growth incubated for 72 hrs by alamar blue dye based fluorescence analysis; format: functional, organism-based; conditions: Lister 427, 72 h
[3] = system: Trypanosoma cruzi; assay: Antitrypanosomal activity against epimastigote form of Trypanosoma cruzi CL Brener assessed as reduction in parasite growth incubated for 72 hrs by alamar blue dye based fluorescence analysis; format: functional, organism-based
[4] = system: Leishmania major; assay: Antileishmanial activity against promastigote form of Leishmania major Freidlin assessed as reduction in parasite growth incubated for 72 hrs by alamar blue dye based fluorescence analysis; format: functional, organism-based
[5] = system: Leishmania donovani; assay: Antileishmanial activity against promastigote form of Leishmania donovani assessed as reduction in parasite growth incubated for 72 hrs by alamar blue dye based fluorescence analysis; format: functional, organism-based
[6] = system: Leishmania donovani; assay: Antileishmanial activity against Leishmania donovani axenic amastigotes assessed as reduction in parasite growth incubated for 72 hrs by alamar blue dye based fluorescence analysis; format: functional, organism-based
[7] = system: Leishmania donovani; assay: Antileishmanial activity against Leishmania donovani amastigotes infected in human THP-1 cells assessed as reduction in parasite growth incubated for 72 hrs by alamar blue dye based fluorescence analysis; format: functional, organism-based; conditions: THP-1, 72 h
[8] = system: THP-1; assay: Cytotoxicity against human THP-1 cells incubated for 72 hrs by alamar blue cell viability assay; format: functional, cell-based; conditions: THP-1, 72 h
[9] = system: Leishmania major; assay: Induction of morphological change in promastigote form of Leishmania major Freidlin assessed as increase in intracellular vesicles at EC10 incubated for 48 hrs by DAPI staining based immunofluorescence analysis; format: functional, organism-based
[10] = system: Trypanosoma brucei; assay: Induction of morphological change in bloodstream trypomastigote form of Trypanosoma brucei Lister 427 assessed as reduction in cytokinesis at EC10 incubated for 48 hrs by DAPI staining based immunofluorescence analysis; format: functional, organism-based
[11] = system: Trypanosoma brucei; assay: Induction of morphological change in bloodstream trypomastigote form of Trypanosoma brucei Lister 427 assessed as appearance of swollen cells at EC10 incubated for 48 hrs by DAPI staining based immunofluorescence analysis; format: functional, organism-based
[12] = Selectivity ratio of EC50 for antileishmanial activity against Leishmania donovani amastigotes infected in human THP-1 cells to EC50 for cytotoxicity against human THP-1 cells; format: functional
[13] = system: Leishmania major; assay: Antileishmanial activity against promastigote form of Leishmania major Freidlin assessed as morphological change at EC10 incubated for 48 hrs by DAPI staining based immunofluorescence analysis; format: functional, organism-based
[14] = system: Trypanosoma cruzi; assay: Antitrypanosomal activity against epimastigote form of Trypanosoma cruzi CL Brener assessed as fold change in reduction of parasite growth incubated for 72 hrs by alamar blue dye based fluorescence analysis relative to miltefosine; format: functional

pEC50 [2]	pEC50 [3]	SMILES	pEC50 [1]	pEC50 [4]	pEC50 [5]	pEC50 [6]	pEC50 [7]	pEC50 [8]	Activity [9]	Activity [10]	Activity [11]	Ratio EC50 [12]	Activity [13]	fold change (FC) [14]
4.82	4.64	COC(=O)[C@@H]1CCCN1C(=O)[C@H](C)CS	< 3.60	5.14	5.55									
5.71	4.85	COC(=O)[C@@H]1CCCN1C(=O)CC(C)C	< 3.60	5.71	5.79	6.01	5.65	< 3.60	Active	Active	Active	50		
4.78	4.74	O=C(O)[C@H]1CCCN1C(=O)CCS	< 3.60	5.22	5.34									
4.58	4.52	CSC[C@@H](C)C(=O)N1CCC[C@H]1C(=O)O	< 3.60	4.94	5.06	5.67	5.38	< 3.60				50		
4.91	4.21	CC(C)C(=O)N1CCC[C@H]1C(=O)O	< 3.60	5.26	5.09									
4.55	4.45	CSCCC(=O)N1CCC[C@H]1C(=O)O	< 3.60	4.77	4.87									
	5.51	CC1CS(=O)(=O)CCN1/N=C/c1ccc([N+](=O)[O-])o1 (stereo not drawn) [NIFURTIMOX]												
5.12	4.27	COC(=O)[C@H]1CCCN1C(=O)C(C)C	< 3.60	5.48	5.45									
4.23	4.18	COC(=O)[C@@H]1CCCN1C(=O)C(C)(C)C	< 3.60	4.84	4.77									
5.01	4.41	CSCCC(=O)N1CCC[C@@H]1C(=O)O	< 3.60	5.32	5.37									
4.64		C[C@H](CS)C(=O)N1CCC[C@H]1C(=O)O [CAPTOPRIL]	3.89	4.91	5.03									
4.41	4.40	C[C@H](CSCc1ccccc1)C(=O)N1CCC[C@H]1C(=O)O	< 3.60	4.77	5.00									
4.55	4.68	O=C(O)[C@@H]1CCCN1C(=O)CCS	< 3.60	5.01	5.15									
5.72	4.40	CC(C)CC(=O)N1CCC[C@@H]1C(=O)O	< 3.60	5.56	5.85									
< 3.70	< 3.70	COC(=O)[C@H]1CCCN1C(=O)Cc1ccccc1	< 3.60	4.00	4.02									
5.23	4.47	COC(=O)[C@H]1CCCN1C(=O)CCSC	< 3.60	5.51	5.57									
5.84	4.43	COC(=O)[C@H]1CCCN1C(=O)CC(C)C	< 3.60	5.69	5.96	6.06	5.69	< 3.60				50		
5.16	5.29	COC(=O)[C@@H]1CCCN1C(=O)CCSCc1ccccc1	< 3.60	5.91	5.93	6.04	5.30	< 3.60		Active	Active	50	inactive	3

pEC50 [2]	pEC50 [3]	SMILES	pEC50 [1]	pEC50 [4]	pEC50 [5]	pEC50 [6]	pEC50 [7]	pEC50 [8]	Activity [9]	Activity [10]	Activity [11]	Ratio EC50 [12]	Activity [13]	fold change (FC) [14]
4.88	4.81	COC(=O)[C@@H]1CCCN1C(=O)[C@H](C)CSC	< 3.60	5.28	5.69									
5.00	4.22	CC(C)C(=O)N1CCC[C@@H]1C(=O)O	< 3.60	5.39	5.32									
4.42	4.36	COC(=O)[C@@H]1CCCN1C(=O)Cc1ccccc1	< 3.60	4.91	4.93									
< 3.70	< 3.70	O=C(O)[C@H]1CCCN1C(=O)Cc1ccccc1	< 3.60	3.98	4.01									
5.01	4.27	COC(=O)[C@@H]1CCCN1C(=O)C(C)C	< 3.60	5.35	5.15									
4.91	4.71	COC(=O)[C@@H]1CCCN1C(=O)CCSC	< 3.60	5.61	5.69	5.73	5.33	< 3.60				50		
5.39	4.22	COC(=O)[C@H]1CCCN1C(=O)CCSCc1ccccc1	< 3.60	4.45	4.47									
4.83	4.70	O=C(O)[C@@H]1CCCN1C(=O)CCSCc1ccccc1	3.92	5.50	5.59									
4.39	4.33	O=C(O)[C@@H]1CCCN1C(=O)Cc1ccccc1	< 3.60	4.84	4.86									
5.23	4.15	O=C(O)[C@H]1CCCN1C(=O)CCSCc1ccccc1	< 3.60	4.40	4.40									
3.97	4.10	CC(C)(C)C(=O)N1CCC[C@@H]1C(=O)O	< 3.60	4.32	4.39									
4.69	4.83	COC(=O)[C@@H]1CCCN1C(=O)CCS	< 3.60	5.15	5.24									
8.70		N=C(N)c1ccc(OCCCCCOc2ccc(C(=N)N)cc2)cc1 [PENTAMIDINE]												
5.61	4.76	CC(C)CC(=O)N1CCC[C@H]1C(=O)O	< 3.60	5.65	5.69									
4.48	4.52	COC(=O)[C@@H]1CCCN1C(=O)[C@H](C)CSCc1ccccc1	< 3.60	5.06	5.40									
		CCCCCCCCCCCCCCCCOP(=O)([O-])OCC[N+](C)(C)C [MILTEFOSINE]		5.27	5.24	5.57	5.22	< 3.60						
4.21	4.15	CC(C)(C)C(=O)N1CCC[C@H]1C(=O)O	< 3.60	4.69	4.70									
4.01	4.13	COC(=O)[C@H]1CCCN1C(=O)C(C)(C)C	< 3.60	4.40	4.46									
